Data taken from patent US20200270225A1, “Chiral Diacylhydrazine Ligands for Modulating the Expression of Exogenous Genes via an Ecdysone Receptor Complex” (Intrexon Corporation, priority 2007, published 2020).

How the values were obtained:
[1] = test system: murine IL-12 under the control of the RTS; experiment: In vivo induction of transgene IL-12 from Ad-RTS-mIL-12 transduced B16 tumor cells; parameters: species or system C57BL/6 mice; conditions: for IL-12 expression levels after ligand treatment discontinued: ligand discontinued for 3 days; for transgene IL-12 expression in tumor and serum, dose pattern: oral gavage 0, 3, 10, 30, 50 mg/kg daily for 3 days
Method: The transgene tested in this example was murine IL-12 under the control of the RTS. Mouse melanoma cells (B16) were transduced with an adenoviral vector Ad-RTS-mIL-12 that carries the murine IL-12 transgene under the control of RTS. These cells were injected subcutaneously (s.c.) into the C57BL/6 mice (histocompatible with B16 cells) and the mice were treated with different doses of the R enantiomer and racemic 2-ethyl-3-methoxy-benzoic acid N′-(1-tert-butyl-butyl)-N′-(3,5-dimethyl-benzoyl)-hydrazide for three days. The control groups included the mice receiving untransduced B16 cells and the higher dose of ligand and another group receiving the transduced B116 cells and no ligand. […] Tumor extracts and serum were prepared and assayed for IL-12 by ELISA.
The remaining mice were used for testing the transgene turn-off when the ligand administration is discontinued for an additional 72 hours.
Materials and Methods: B16 cells were infected with Ad-RTS-mIL-12 (MOI=100) in vitro. After 48 h, 5×10^5 (B16, right flank) cells were injected s.c. into C57 BL/6 mice (10 mice/group). The R enantiomer and racemate ligands were dissolved in Labrasol by heating a 10 mg/mL mixture at 50° C. for 5 minutes. Both ligands were dissolved in Labrasol based on visual inspection. Activating ligands were provided via oral gavage at the following doses (0 mg/kg; 3 mg/kg; 10 mg/kg; 30 mg/kg and 50 mg/kg) daily for 3 days. Additional controls included B16-bearing mice receiving ligand only (50 mg/kg/day for 3 days and untreated tumor-bearing mice). Five mice/group were harvested for isolation of tumor lesions and peripheral blood. Tissue was homogenized in 1 ml total of phosphate-buffered saline. Lysate/serum was cryopreserved at −80° C. The alternate 5 mice/group were allowed to sit for an additional 72 h in the absence of further ligand administration. These latter 5 mice/group were harvested for isolation of tumor lesions and peripheral blood. Tissue was homogenized as above, and cryopreserved and lysate/serum was cryopreserved at −80° C. Specimens were thawed at 37° C. in water bath and analyzed for mIL-12p70 and also mIFN-γ, a corollary IL-12-dependent cytokine important for CTL trafficking into tumors, using specific ELISAs (BD-Pharmingen).

[2] = Blood serum levels after oral gavage in Labrasol; type: in vivo, C57BL/6N:Crl mice; conditions: 30 and 50 mg/kg/day, 9 and 12 days
Method: Compounds in Labrasol were administered to C57BL/6N:Crl (wild-type) mice (Charles River Laboratories) by oral gavage, the intended route of administration in humans. Dosage was set at 3, 10, 30, or 50 mg/kg/day and 2.5 mL/kg/dose (FIG. 16). Doses were administered for 9 days (first 18 females/group) or 12 days (second 18 females/group) (FIG. 16). Blood was withdrawn at 9-day and 12-day time points. Concentrations were quantified by reverse-phase HPLC.
For each concentration, the samples were prepared by adding Labrasol to solid R enantiomer or racemate in a beaker, sonicating to break up visible aggregates, and magnetic stirring until a uniform appearance was attained. The mixtures were transferred to a graduated cylinder and topped off to the requisite volume using a Labrasol rinse of the beaker. The contents of the cylinder were mixed by inversion and stirred magnetically until dosing.
Mouse blood serum levels as a function of time were measured by quantitative HPLC. […] The initial particle size differences between racemate an R enantiomer may account for a portion of the serum level differences. Also, the greater intrinsic solubility of the R enantiomer over the racemate in Labrasol may account for a portion of the serum level differences. […]

| SMILES | IL-12 expression levels after ligand treatment discontinued [1] | IFN-γ levels in tumor and serum ([1]; mouse, in vivo) | transgene IL-12 expression in tumor and serum, dose pattern [1] | blood serum levels [2] |
| --- | --- | --- | --- | --- |
| CCC[C@@H](N(NC(=O)c1cccc(OC)c1CC)C(=O)c1cc(C)cc(C)c1)C(C)(C)C [Example 1, (R)-3,5-Dimethyl-benzoic Acid N-(1-tert-butyl-butyl)-N′-(2-ethyl-3-methoxy-benzoyl)-hydrazide] | dropped to similar proportions in all the treatment groups | clearly showed enhanced expression | dose-dependent pattern | significantly higher blood serum levels |
| CCCC(N(NC(=O)c1cccc(OC)c1CC)C(=O)c1cc(C)cc(C)c1)C(C)(C)C (racemic) [rac-1, rac-2-ethyl-3-methoxy-benzoic acid N′-(1-tert-butyl-butyl)-N′-(3,5-dimethyl-benzoyl)-hydrazide] | dropped to similar proportions in all the treatment groups | – | dose-dependent pattern | substantially lower (<4-5 fold AUC) |
